Results reported in patent US10265294B2, “Compositions and methods for treating epithelial cancer” (YALE UNIVERSITY, priority 2016, dated 2019).

Legend:
[1] = tested on: OCSC1 (chemoresistant CD44+/MyD88+ ovarian cancer stem cell clone); assay: Real-time measurement of cell number/cell death and IC50, OCSC1 clone; assay type: cell-based; conditions: Homo sapiens; screen of 40 SBP analogs, OCSC1 clone (FIG. 1A)
Method: CD44+/MyD88+ ovarian cancer stem cell clones (OCSC1 and OCSC2) and CD44−/MyD88− ovarian cancer cells (OCC1 and OCC2) were isolated from either tumor tissue or ascites obtained from patients diagnosed with stage III/IV serous ovarian cancer and propagated (Alvero, et al., 2009, Cell Cycle 8:158-166; Chefetz, et al., 2013, Cell Cycle 12:511-521). The epithelial nature of the isolated cells was determined by immunostaining for Ck18. Purity of the cultures based on CD44 expression by flow cytometry and chemoresistance were routinely tested. […]
(§1) Effect of each compound on cell morphology, growth, and viability was assessed using a kinetic live cell imaging system (Incucyte, Essen Bioscience). Proliferation was calculated as previously described (Alvero, et al., 2011, Mol. Cancer Ther. 10:1385-1393) using metrics from either confluence or fluorescent count from nuclear-restricted RFP or GFP. Cell death was quantified; similarly CELLTOX® Green Cytotoxicity Assay (Promega, Madison, Wis.). IC50 was calculated as described using GraphPad Prism (GraphPad Software Inc., LaJolla, Calif.).
(§2) A panel of four different SBP subfamilies with cytotoxic activity against chemoresistant ovarian cancer stem cells were tested for efficacy in inducing ovarian cancer stem cell death. […] The efficacy of each analog was determined based on its IC50.

[2] = tested on: OCSC2 (chemoresistant CD44+/MyD88+ ovarian cancer stem cell clone); assay: Real-time measurement of cell number/cell death and IC50, OCSC2 clone; assay type: cell-based, human
Method: (§3) CD44+/MyD88+ ovarian cancer stem cell clones (OCSC1 and OCSC2) and CD44−/MyD88− ovarian cancer cells (OCC1 and OCC2) were isolated from either tumor tissue or ascites obtained from patients diagnosed with stage III/IV serous ovarian cancer and propagated (Alvero, et al., 2009, Cell Cycle 8:158-166; Chefetz, et al., 2013, Cell Cycle 12:511-521). The epithelial nature of the isolated cells was determined by immunostaining for Ck18. Purity of the cultures based on CD44 expression by flow cytometry and chemoresistance were routinely tested. Stable expression of nuclear-restricted red fluorescent (in OCSCs) or green fluorescent proteins (in OCCs) was performed by transduction using NUCLIGHT® Red or Green Lentivirus Reagent (Essen Bioscience, Ann Arbor, Mich.). Spheroids were formed from OCSCs by culturing in ultra-low attachment multi-well plates (Corning, Inc., Corning, N.Y.).
as §1, §2
TRX-E-002 exists as a racemic mixture comprised of two enantiomers, enantiomer A (TRX-E-002-1) and enantiomer B (TRX-E-002-2). Thus, the enantiomers were separated and assessed separately. […]

[3] = tested on: OCSCs (CD44+/MyD88+ ovarian cancer stem cells); assay: OCSC growth, morphology, RFP+ cell count and Celltox cell death (kinetic live cell imaging); assay type: cell-based, human
Method: as §3, §1
In vitro, conventional chemotherapeutic drugs had negligible effect on OCSC growth even in the μM range (FIG. 1B).
TRX-E-002 exists as a racemic mixture comprised of two enantiomers, enantiomer A (TRX-E-002-1) and enantiomer B (TRX-E-002-2). Thus, the enantiomers were separated and assessed separately. To distinguish between an analog's cytostatic or cytotoxic activity, OCSC clones that are stably transfected with nuclear-restricted RFP were used, which allows an accurate quantification of the number of cells and can be multiplexed with CELLTOX® assay to concomitantly measure the number of dead cells.

[4] = tested on: chemoresistant ovarian cancer stem cells; assay: OCSC growth and morphology with TRX-E-002-1, AICAR or the combination; assay type: cell-based, human
Method: The effect of each compound on cell growth was assessed using a kinetic live cell imagine system (Incucyte, Essen Bioscience). Proliferation was determined based on either confluence or fluorescent count from nuclear-restricted RFP or GFP. The IC50 values were calculated using GraphPad Prism (GraphPad Software Inc., LaJolla, Calif.). […]

[5] = tested on: co-culture of RFP-labeled OCSC2 and GFP-labeled OCC2; assay: In vitro co-culture model 50% RFP-OCSC2 / 50% GFP-OCC2; assay type: cell-based; conditions: co-culture 50/50; TRX-E-002-1 0.12 μM, Cisplatin 20 μM
Method: as §3, §1
Without wishing to be limited by any theory, response to chemotherapy may be modified by cross-talk among different cancer cell types within the tumor. Thus, to mimic the heterogeneity of ovarian tumors an in vitro co-culture model consisting of RFP-labeled chemoresistant OCSC2 and GFP-labeled chemosensitive OCC2 was used. The co-cultures, which are comprised of 50% RFP-OCSC2 and 50% GFP-OCC2 at time of treatment, were exposed to TRX-E-002-1, cisplatin, or the combination of both. Since GFP-OCC2 has faster doubling time than RFP-OCSC2, it overtook the control co-cultures by the end of the experiment and thus the control co-cultures are mainly comprised of GFP-OCC2 by the 24 h time-point (FIG. 2B).

[6] = tested on: i.p. tumors of mCherry+OCSC1-F2 ovarian cancer cells; assay: Recurrent disease xenograft, maintenance treatment after Paclitaxel; assay type: in vivo
Source text: The Yale University Institutional Animal Care and Use Committee approved all in vivo studies described. Intra-peritoneal tumors were established in athymic nude mice using 4×10^6 mCherry+OCSC1-F2 ovarian cancer cells (Craveiro, et al., 2013, Cancer Med. 2:751-762). Injection of cancer cells is designated as day 0 and treatment commenced between day 3-5. Establishment of i.p. tumors was confirmed by live imaging (In-Vivo FX PRO, Bruker Corp., Billerica, Mass.) prior to treatment. TRX-E-002-1 was prepared in 20% Captisol or Dexsolve and administered daily at 50 mg/kg or 100 mg/kg. Paclitaxel was given at 12 mg/kg q3d and Cisplatin at 5 mg/kg weekly. All treatments were given i.p. Tumor growth was monitored q3d by live imaging and response to treatment was assessed using ROI area.
Although the standard of care for ovarian cancer patients (platinum plus taxane) is effective initially, most patients develop recurrent disease. Recurrence is the major cause of mortality in ovarian cancer patients, and thus approaches that can prevent recurrence are critical to improve patient survival. As described elsewhere herein, a unique advantage of the xenograft model is the recapitulation of recurrent disease that is typically observed in patients with ovarian cancer. […] Upon recurrence, tumors acquire resistance and become unresponsive to a second-round of Paclitaxel regimen, as observed in ovarian cancer patients. Thus, the model allows one to assess the value of novel compounds in preventing recurrence when given as maintenance treatment.
Thus mice were given Paclitaxel as initial treatment. […] After the 4th dose of Paclitaxel mice were re-randomized into the different maintenance groups. Here the maintenance protocol consisted of continued treatment with Paclitaxel, or maintenance with TRX-E-002-1 (100 mg/kg), or maintenance with Vehicle control.

[7] = tested on: ERK; assay: Phosphokinase array / Western blot for phosphorylated ERK in OCSCs; assay type: cell-based, human; conditions: U0126 10 μM, 2 hours; comparable to levels induced by TRX-E-002-1
Method: SDS-PAGE and Western blots were performed using 20 μg of total protein lysate as described in Kamsteeg, et al., 2003, Oncogene 22:2611-2620. Antibodies used were: mouse anti-phospho ERK (Santa Cruz Biotechnology, Inc., Dallas, Tex.); rabbit anti-phospho c-Jun, rabbit anti c-Jun, rabbit anti-ERK, rabbit anti-cleaved caspase 3 all from Cell Signaling Technology, Danvers, Mass.; and mouse anti-GAPDH (Sigma-Aldrich).
In order to elucidate the early pathways responsible for the sustained cytotoxic effect observed with TRX-E-002-1, a phosphokinase array was performed. The phosphokinase array detected relative phosphorylation levels of 43 different kinases involved in major signal transduction pathways.
The western blot results also validated the decrease in p-ERK in cells treated with TRX-E-002-1. […] The effect on the phosphorylation status of the kinases (upregulation of p-cJun and downregulation of p-ERK) was observed as early as 2 h post-treatment and maintained up to 24 h (FIG. 4A). The phosphorylation levels of c-Jun and ERK correlate with the differential ability of the two doses of TRX-E-002-1 to induce a sustained cytotoxic effect. […] This correlates with the ability of this dose of TRX-E-002-1 to maintain the upregulation of p-cJun and downregulation of p-ERK even when the compound is removed (FIG. 4B). […]

[8] = tested on: OCSCs; assay: Cell death of OCSCs with JNK or ERK pathway inhibitor; assay type: cell-based, human; conditions: U0126 10 μM, 24 hour time-point
Method: as §1
Jun N-terminal kinase (JNK) is a stress-activated protein kinase and the main kinase that phosphorylates c-Jun. To determine whether the JNK/Jun pathway is involved in TRX-E-002-1-induced cell death, the JNK inhibitor SP600125 (1,9-Pyrazoloanthrone; a reversible ATP competitive inhibitor selective for JNK 1, 2, and 3) was used. Cells were treated with TRX-E-002-1 in the presence or absence of SP600125.
To determine the importance of downregulating the levels of p-ERK, cells were treated with U0126 (1,4-diamino-2,3-dicyano-1,4-bis(2-aminophenylthio)butadiene) to recapitulate the effect of TRX-E-002-1 on the ERK pathway.

## COc1cc(C2COc3c(ccc(O)c3C)C2c2ccc(O)cc2)cc(OC)c1O (racemic) [TRX-E-002, 3-(4-hydroxy-3,5-dimethoxyphenyl)-4-(4-hydroxyphenyl)-8-methylchroman-7-ol]
[1]
  IC50: < 0.245 µM
[2]; Homo sapiens, screen of 40 SBP analogs, OCSC2 clone (FIG. 1A)
  IC50: < 0.245 µM
[3]; 24 hours, compared with Cisplatin or Paclitaxel treated cultures
  apoptotic cells by microscopic evaluation of the cultures: higher percentage of apoptotic cells
[3]; chemotherapeutic drugs even in the μM range, TRX-E-002 at low concentrations
  effect on OCSC growth: persistent growth inhibitory effect

## COc1cc(C2COc3c(ccc(O)c3C)C2c2ccc(O)cc2)cc(OC)c1O (single isomer, unassigned) [TRX-E-002-2]
[2]; OCSC2, 24 hours (FIG. 1G)
  IC50: 10 µM
[3]; RFP OCSC clones, TRX-E-002-1 beginning at the 0.245 μM dose, TRX-E-002-2 except for the very high dose of 10 μM
  number of nuclear RFP+ cells: mostly ineffective

## NC(=O)c1ncn([C@@H]2O[C@H](CO)[C@@H](O)[C@H]2O)c1N [AICAR, 5-aminoimidazole-4-carboxamide-1-β-D-ribofuranoside, reference compound]
[4]; 48 hours, AICAR at 0.2 mM
  cell morphology / apoptotic cells: no effect
[4]; TRX-E-002-1 25 ng/ml, mono therapies or combination
  effect on cell growth: minimal effect

## N.N.[Cl][Pt][Cl] [Cisplatin, reference compound]
[5]
  number of GFP+ cells (GFP-OCC2): decrease
  number of mCherry+ cells (RFP-OCSC2): no effect

## CC(=O)O[C@H]1C(=O)[C@@]2(C)[C@H]([C@H](OC(=O)c3ccccc3)[C@]3(O)C[C@H](OC(=O)[C@H](O)[C@@H](NC(=O)c4ccccc4)c4ccccc4)C(C)=C1C3(C)C)[C@]1(OC(C)=O)CO[C@@H]1C[C@@H]2O [Paclitaxel, reference compound]
[6]; Paclitaxel 4 doses at 12 mg/kg i.p.
  tumor progression during initial treatment: significant delay in tumor progression
[6]; after 4th dose of Paclitaxel, TRX-E-002-1 100 mg/kg daily i.p. or continued Paclitaxel
  tumor progression during maintenance treatment: tumor progression was observed
[6]; maintenance groups
  gross examination of residual disease: visible carcinomatosis and extensive metastasis
  tumor weights at end point compared to control: not

## N#CC(=C(N)Sc1ccccc1N)C(C#N)=C(N)Sc1ccccc1N [U0126, 1,4-diamino-2,3-dicyano-1,4-bis(2-aminophenylthio)butadiene, reference compound]
[7]
  levels of p-ERK: downregulated
[8]
  effect on cell death relative to TRX-E-002-1: not comparable
